Among the data in patent publication US20120309823A1, “PERCUTANEOUS ABSORPTION PREPARATIONS” (priority 1999, published 2012) are melting point values, retold here.

One may read the melting point as the temperature, or range, at which the solid turns liquid.

SMILES strings stand for the structures.

Turning to `CC(=O)NCC[C@@H]1CCc2ccc3c(c21)CCO3`, the melting point fell in the range of 118 to 120 °C.
